In patent publication US20230266309A1, “PROTEIN MICROARRAY, USE AND DETECTION METHOD THEREOF” (NATIONAL CHENG KUNG UNIVERSITY, priority 2021, published 2023):

Target: T1, S proteins of wild-type SARS-CoV-2 virus and the SARS-CoV-2 D614G, B.1.1.7, B.1.351, P1, B.1.617, B.1.617.1, B.1.617.2, and B.1.617.3 variants (Homo sapiens, UniProt Q9BYF1)
T1 construct: purchased Sino Biological Inc. (Mainland China)
Type: binding
Settings: FIG. 10; for ACE2 binding to the S protein: SARS-CoV-2 B.1.617.3 variant (excepted from the dose-dependent decrease); for ACE2 binding to the S proteins: wild-type and D614G, B.1.1.7, B.1.351, P1, B.1.617, B.1.617.1, B.1.617.2 variants

T1 sequence (Q9BYF1 18-740, stated change not applied): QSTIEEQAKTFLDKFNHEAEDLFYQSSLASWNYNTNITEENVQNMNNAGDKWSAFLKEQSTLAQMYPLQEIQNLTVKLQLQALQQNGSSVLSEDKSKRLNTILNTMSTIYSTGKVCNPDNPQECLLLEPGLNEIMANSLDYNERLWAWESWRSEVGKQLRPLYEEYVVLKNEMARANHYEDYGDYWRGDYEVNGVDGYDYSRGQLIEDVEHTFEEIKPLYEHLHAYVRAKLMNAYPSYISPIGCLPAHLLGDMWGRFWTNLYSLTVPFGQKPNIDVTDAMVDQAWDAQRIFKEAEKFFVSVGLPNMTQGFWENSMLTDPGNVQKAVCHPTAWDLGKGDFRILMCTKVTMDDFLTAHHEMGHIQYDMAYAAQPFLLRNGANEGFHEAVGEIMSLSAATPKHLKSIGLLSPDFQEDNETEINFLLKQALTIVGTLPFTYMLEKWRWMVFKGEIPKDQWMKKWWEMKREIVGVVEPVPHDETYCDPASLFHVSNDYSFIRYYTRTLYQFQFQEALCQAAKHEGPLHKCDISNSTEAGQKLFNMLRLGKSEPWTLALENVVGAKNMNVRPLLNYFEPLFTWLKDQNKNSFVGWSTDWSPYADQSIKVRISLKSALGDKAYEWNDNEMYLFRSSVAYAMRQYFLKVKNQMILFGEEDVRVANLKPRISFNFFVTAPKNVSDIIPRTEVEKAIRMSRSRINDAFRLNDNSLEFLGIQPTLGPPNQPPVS

SMILES: CCC[C@H](N[C@@H](C)C(=O)N1[C@H](C(=O)O)C[C@@H]2CCCC[C@@H]21)C(=O)OCC [Perindopril]
- ACE2 binding to the S protein: except for the SARS-CoV-2 B.1.617.3 variant
- ACE2 binding to the S proteins: dose-dependently decrease

SMILES: CCOC(=O)[C@H](CCc1ccccc1)N[C@@H](C)C(=O)N1[C@H](C(=O)O)C[C@@H]2CCC[C@@H]21 [Ramipril]
- ACE2 binding to the S protein: except for the SARS-CoV-2 B.1.617.3 variant
- ACE2 binding to the S proteins: dose-dependently decrease
